Measured values published in ChEMBL document CHEMBL1122575, “Dependence of beta-lactamase stability on substructures within beta-lactam antibiotics” (J Med Chem, 1984).
Converted amounts (≈) assume the structure as drawn. Values belong to the compound of their own block, whether it stands above or below them.

Assays:
Escherichia coli [1] = test: Compound was evaluated for the relative Vmax against Escherichia coli with strain 609 (beta-Lactamase-positive (LAC+)); type: ADME, organism-based
Escherichia coli [2] = test: Compound was evaluated for the antibacterial activity against Escherichia coli with strain 609 (beta-Lactamase-positive (LAC+)); type: functional
Escherichia coli [3] = test: Compound was evaluated for the antibacterial activity against Escherichia coli with strain NIHJ (beta-Lactamase-negative (LAC-)); type: functional
Enterobacter cloacae [4] = test: Compound was evaluated for the antibacterial activity against Enterobacter cloacae with the strains beta-Lactamase-positive (LAC+); type: functional
Providencia rettgeri [5] = test: Compound was evaluated for the antibacterial activity against Providencia rettgeri with the strains beta-Lactamase-positive (LAC+); type: functional
[6] = Relative hydrolysis rate (RHR) was evaluated against K1 enzyme; type: ADME
[7] = Relative hydrolysis rate (RHR) was evaluated against RTEM enzyme; type: ADME
Escherichia coli [8] = test: Compound was evaluated for the antibacterial activity against Escherichia coli (RTEM- organism); 0.1/0.4; type: functional
Escherichia coli [9] = test: cCompound was evaluated for the antibacterial activity against Escherichia coli (RTEM+ organism); 0.4/0.2; type: functional
Klebsiella aerogenes [10] = test: Compound was evaluated for the antibacterial activity against Klebsiella aerogenes with strain K1-; 0.8/0.8; type: functional
Klebsiella aerogenes [11] = test: Compound was evaluated for the antibacterial activity against Klebsiella aerogenes with strain K1; 100/>100; type: functional
Escherichia coli [12] = test: Percentage zonal reduction was evaluated against Escherichia coli; type: functional
Staphylococcus aureus [13] = test: Percentage zonal reduction was evaluated against Staphylococcus aureus; type: functional
Escherichia coli [14] = test: Relative hydrolysis rate (RHR) was evaluated against Escherichia coli with the strain RTEM; type: ADME, organism-based
Providencia rettgeri [15] = test: Compound was evaluated for the antibacterial activity against Providencia rettgeri with the strain beta-Lactamase-negative (LAC-); type: functional
[16] = Compound was evaluated for the relative Vmax against RTEM enzyme; type: ADME
[17] = Compound was evaluated for the percentage remaining after 24 hr hydrolysis at a pH 7 at 37 degree Centigrade; details: buffer
Enterobacter cloacae [18] = test: Compound was evaluated for the antibacterial activity against Enterobacter cloacae with strain 233 (beta-Lactamase-positive (LAC+)); type: functional
Escherichia coli [19] = test: Compound was evaluated for the antibacterial activity against Escherichia coli (RTEM+ organism).; type: functional
Escherichia coli [20] = test: Compound was evaluated for the antibacterial activity against Escherichia coli with strain JC-S (beta-Lactamase-negative (LAC-)); type: functional
Staphylococcus aureus [21] = test: Relative hydrolysis rate (RHR) was evaluated against Staphylococcus aureus with strain PC1.; type: ADME, organism-based
Staphylococcus aureus [22] = test: Compound was evaluated for the antibacterial activity against Staphylococcus aureus with strain beta-Lactamase-negative (LAC-); type: functional
Staphylococcus aureus [23] = test: Compound was evaluated for the antibacterial activity against Staphylococcus aureus with strain beta-Lactamase-positive (LAC+); type: functional
Escherichia coli [24] = test: Compound was evaluated for the antibacterial activity against Escherichia coli (RTEM+ organism); type: functional
Escherichia coli [25] = test: Compound was evaluated for the antibacterial activity against Escherichia coli with strain beta-Lactamase-negative (LAC-); type: functional
[26] = Relative Vmax was reported; type: ADME
Escherichia coli [27] = test: Compound was evaluated for the antibacterial activity against Escherichia coli (RTEM+organism) at 10e4/10e6 cfu; 6.3/>100; type: functional
Escherichia coli [28] = test: Compound was evaluated for the antibacterial activity against Escherichia coli (RTEM-organism) at 10e4/10e6 cfu; 0.4/1.6; type: functional
Klebsiella aerogenes [29] = test: Compound was evaluated for the antibacterial activity against Klebsiella aerogenes with strain K1- at 10e4/10e6 cfu; 0.4/1.6; type: functional
Klebsiella aerogenes [30] = test: Compound was evaluated for the antibacterial activity against Klebsiella aerogenes with strain K1+ at 10e4/10e6 cfu; 100/>100; type: functional
Escherichia coli [31] = test: Compound was evaluated for the antibacterial activity against Escherichia coli with strain NIHJ (beta-Lactamase-negative (LAC-); type: functional
Staphylococcus aureus [32] = test: Relative hydrolysis rate (RHR) was evaluated against Staphylococcus aureus with the strain FS108; type: ADME, organism-based
Staphylococcus aureus [33] = test: Compound was evaluated for the antibacterial activity against Staphylococcus aureus with the strains beta-Lactamase-positive (LAC+)/ beta-Lactamase-negative (LAC-); 64/0.03; type: functional
Staphylococcus aureus [34] = test: Compound was evaluated for the antibacterial activity against Staphylococcus aureus with the strain 209P; type: functional

Compound: CC(O)[C@H]1C(=O)N2C(C(=O)O)=C(SCCN)SC12 (stereo not given in full)
RVmax (Escherichia coli [1]): < 0.1
MIC (Escherichia coli [2]): 1.5 µg/mL (≈ 5.17 µM)
MIC (Escherichia coli [3]): 0.8 µg/mL (≈ 2.76 µM)

Compound: CO/N=C(\C(=O)N[C@@H]1C(=O)N2C(C(=O)O)=C(COC(C)=O)CS[C@H]12)c1csc(N)n1 [CEFOTAXIME]
RHR [6]: 100
RHR [7]: 100

Compound: CC(=O)OCC1=C(C(=O)O)N2C(=O)[C@@H](NC(=O)/C(=N/OCC(=O)O)c3csc(N)n3)C2SC1 (stereo not given in full)
RHR [6]: 3
RHR [7]: < 0.1

Compound: CC1=C(C(=O)O)N2C(=O)[C@@H](NC(=O)[C@H](N)c3ccccc3)[C@H]2SC1 [CEPHALEXIN ANHYDROUS]
Zone reduction (Escherichia coli [12]): 27%
Zone reduction (Staphylococcus aureus [13]): 48%

Compound: Cn1nnnc1SCC1=C(C(=O)O)N2C(=O)[C@@H](NC(=O)Cc3ccc(O)cc3)C2OC1 (stereo not given in full)
MIC (Enterobacter cloacae [18]): > 100 µg/mL
MIC (Escherichia coli [19]): > 100 µg/mL
MIC (Escherichia coli [20]): 0.8 µg/mL (≈ 1.79 µM)

Compound: Cn1nnnc1SCC1=C(C(=O)O)N2C(=O)[C@@H](NC(=O)C(C(=O)O)c3ccc(O)cc3)C2OC1 (stereo not given in full)
MIC (Enterobacter cloacae [18]): 0.4 µg/mL (≈ 0.816 µM)
MIC (Escherichia coli [19]): 50 µg/mL (≈ 102 µM)
MIC (Escherichia coli [20]): 0.2 µg/mL (≈ 0.408 µM)

Compound: CC(=O)NCCSC1=C(C(=O)O)N2C(=O)[C@H]([C@@H](C)O)C2C1 (stereo not given in full)
MIC (Escherichia coli [24]): 6.2 µg/mL (≈ 19.7 µM)
MIC (Escherichia coli [25]): 6.2 µg/mL (≈ 19.7 µM)

Compound: CC1(C)SC2[C@H](NC(=O)c3ccccc3)C(=O)N2C1C(=O)O (stereo not given in full)
RVmax [26]: 2

Compound: NCCSC1=C(C(=O)O)N2C(=O)[C@@H](CO)C2S1 (stereo not given in full)
RVmax (Escherichia coli [1]): 10
MIC (Escherichia coli [2]): 25 µg/mL (≈ 90.5 µM)
MIC (Escherichia coli [3]): 3.1 µg/mL (≈ 11.2 µM)

Compound: NCCSC1=C(C(=O)O)N2C(=O)CC2S1 (stereo not given)
RVmax (Escherichia coli [1]): 75
MIC (Escherichia coli [2]): 50 µg/mL (≈ 203 µM)
MIC (Escherichia coli [3]): 0.8 µg/mL (≈ 3.25 µM)

Compound: NCCSC1=C(C(=O)O)N2C(=O)[C@H](CO)C2S1 (stereo not given in full)
RVmax (Escherichia coli [1]): < 0.1
MIC (Escherichia coli [2]): 3.1 µg/mL (≈ 11.2 µM)
MIC (Escherichia coli [3]): 1.5 µg/mL (≈ 5.43 µM)

Compound: CCO[C@@]1(NC(=O)CSCC#N)C(=O)N2C(C(=O)O)=C(CSc3nnnn3C)CSC21 (stereo not given in full)
MIC (Escherichia coli [19]): 50 µg/mL (≈ 103 µM)
MIC (Escherichia coli [31]): 50 µg/mL (≈ 103 µM)

Compound: CC(=O)NCCSC1=C(C(=O)O)N2C(=O)[C@@H](C(C)O)C2C1 (stereo not given in full)
MIC (Escherichia coli [24]): 25 µg/mL (≈ 79.5 µM)
MIC (Escherichia coli [25]): 0.2 µg/mL (≈ 0.636 µM)

Compound: CC1(C)S[C@@H]2[C@H](NC(=O)Cc3ccccc3)C(=O)N2[C@H]1C(=O)O [PENICILLIN G]
RHR (Staphylococcus aureus [32]): 100
RVmax [26]: 1
MIC (Staphylococcus aureus [33]): 64 µg/mL (≈ 191 µM)
MIC (Staphylococcus aureus [34]): 0.065 µg/mL (≈ 0.194 µM)

Compound: CC(=O)OCC1=C(C(=O)O)N2C(=O)[C@@H](NC(=O)/C(=N\OCC(=O)O)c3csc(N)n3)C2SC1 (stereo not given in full)
RHR [6]: 101
RHR [7]: 2111

Next, values leading:

MIC (Enterobacter cloacae [4]): 25 µg/mL
MIC (Providencia rettgeri [5]): 12.5 µg/mL
Compound: Cn1nnnc1SCC1=C(C(=O)[O-])N2C(=O)[C@@H](NC(=O)[C@H](NC(N)=O)c3ccco3)C2SC1.[Na+] (stereo not given in full)

MIC (Escherichia coli [8]): 0.1 µg/mL
MIC (Escherichia coli [9]): 0.4 µg/mL
MIC (Klebsiella aerogenes [10]): 0.8 µg/mL
MIC (Klebsiella aerogenes [11]): > 100 µg/mL
Compound: C#C[C@@H]1[C@H](NC(=O)/C(=N/OC)c2csc(N)n2)C(=O)N1S(=O)(=O)[O-].[K+]

RHR (Escherichia coli [14]): < 0.02
MIC (Providencia rettgeri [15]): > 100 µg/mL
Compound: CO/N=C(\C(=O)NC1CN(S(=O)(=O)[O-])C1=O)c1csc(N)n1.[K+] (stereo not given)

RVmax [16]: 12
remaining at 24 h [17]: > 80%
Compound: CC(=O)N[C@H]1CN(S(=O)(=O)[O-])C1=O.[K+]

MIC (Enterobacter cloacae [4]): > 100 µg/mL
Compound: Cn1nnnc1SCC1=C(C(=O)O)N2C(=O)[C@@H](NC(=O)Cc3csc(N)n3)C2SC1 (stereo not given in full)

RHR (Staphylococcus aureus [21]): 1
MIC (Staphylococcus aureus [22]): 0.1 µg/mL (≈ 0.24 µM)
MIC (Staphylococcus aureus [23]): 1.6 µg/mL (≈ 3.84 µM)
Compound: CC1[C@H](NC(=O)CSc2cc(Cl)nc(Cl)c2)C(=O)N1OS(=O)(=O)O (single isomer, unassigned)

RHR [6]: 106
RHR [7]: 12
MIC (Escherichia coli [27]): 6.3 µg/mL
MIC (Escherichia coli [28]): 0.4 µg/mL
MIC (Klebsiella aerogenes [29]): 0.4 µg/mL
MIC (Klebsiella aerogenes [30]): 100 µg/mL
Compound: CO/N=C(/C(=O)N[C@H]1CN(S(=O)(=O)[O-])C1=O)c1csc(N)n1.[K+]

RHR (Staphylococcus aureus [21]): < 0.5
MIC (Staphylococcus aureus [22]): 0.1 µg/mL
MIC (Staphylococcus aureus [23]): 0.2 µg/mL
Compound: O=C(CSc1cc(Cl)nc(Cl)c1)N[C@H]1CN(OS(=O)(=O)[O-])C1=O.[K+]
